Results reported in US6653321B1, “Naphthylsulfonic acids and related compounds as glucose uptake agonists” (Telik, Inc., priority 1999, dated 2003).

Molecular target: T1, β-kinase domain of the human insulin receptor (CKD) (Homo sapiens, UniProt P06213)
T1 construct: The complete β-kinase domain of the human insulin receptor (CKD); made in house
Assay: 32P-Cytoplasmic Kinase Domain (CKD) autophosphorylation assay
Type: biochemical
Settings: 32P incorporated into CKD band, percentage of the vehicle (DMSO) level; 10 minutes at room temperature; compound concentration not given
Procedure: The complete β-kinase domain of the human insulin receptor (CKD) was expressed in, and purified from, baculovirus. CKD (4.0 μg/mL), in a solution of 50 mM Tris.HCl, 2 mM MnCl2, 10 mM MgCl2 (50 μl final volume), was combined with […] ATP, and 5 μCi ^32P-ATP (3000 Ci/mmol.). A test compound, or the vehicle (DMSO), was added to a final DMSO concentration of 1%. The mixture was incubated for 10 minutes at room temperature. The reaction was terminated by the addition of 10 μl of 200 mM EDTA. A 30 μl volume was removed, mixed with 5 μl of 6×Laemmeli sodium dodecyl sulfate (SDS) treatment buffer, and heated to 94° C. for 5 minutes. A 20 μl aliquot was then run on an SDS-PAGE gel. The radioactivity incorporated into the CKD band is quantified by phosphorimaging of the gel, or scintillation counting of the excised bands.
The potency of a compound for increasing phosphorylation is expressed as a percentage of the vehicle level.

T1 sequence (P06213 980-1382 limits assumed): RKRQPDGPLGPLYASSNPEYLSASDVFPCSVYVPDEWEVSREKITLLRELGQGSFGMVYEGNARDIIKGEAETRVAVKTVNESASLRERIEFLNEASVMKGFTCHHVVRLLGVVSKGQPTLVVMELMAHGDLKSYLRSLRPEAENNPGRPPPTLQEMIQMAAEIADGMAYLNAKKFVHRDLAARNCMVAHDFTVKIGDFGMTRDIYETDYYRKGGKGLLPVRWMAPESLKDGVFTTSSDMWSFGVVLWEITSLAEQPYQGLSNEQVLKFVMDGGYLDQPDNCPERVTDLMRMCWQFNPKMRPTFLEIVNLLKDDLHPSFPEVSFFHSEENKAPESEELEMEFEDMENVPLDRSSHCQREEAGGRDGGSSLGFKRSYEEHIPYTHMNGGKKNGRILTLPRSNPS

Structure (SMILES) | Activity (% Control)
COc1cccc(NC(=O)Nc2cc(C(=O)Nc3cccc4cc(S(=O)(=O)O)ccc34)cc(C(=O)Nc3cccc4cc(S(=O)(=O)O)ccc34)c2)c1 [Compound 64, 5-[(3-{[(3-methoxyphenyl)amino]carbonylamino}-5-[N-(6-sulfonaphthyl)carbamoyl]phenyl)carbonylamino]naphthalene-2-sulfonic acid] | 58.3 % Control
COc1ccc(NC(=O)Nc2cc(C(=O)Nc3cccc4cc(S(=O)(=O)O)ccc34)cc(C(=O)Nc3cccc4cc(S(=O)(=O)O)ccc34)c2)cc1 [Compound 65, 5-[(3-{[(4-methoxyphenyl)amino]carbonylamino}-5-[N-(6-sulfonaphthyl)carbamoyl]phenyl)carbonylamino]naphthalene-2-sulfonic acid] | 85.9 % Control
O=C(Nc1cccc2cc(S(=O)(=O)O)ccc12)c1cc(NC(=O)c2ccccc2S(=O)(=O)O)cc(C(=O)Nc2cccc3cc(S(=O)(=O)O)ccc23)c1 [Compound 29, 5-({5-[N-(6-sulfonaphthyl)carbamoyl]-3-[(2-sulfophenyl)carbonylamino]phenyl}carbonylamino)naphthalene-2-sulfonic acid] | 75.6 % Control
Cc1ccc(NC(=O)CCC(=O)Nc2cc(C(=O)Nc3cccc4cc(S(=O)(=O)O)ccc34)cc(C(=O)Nc3cccc4cc(S(=O)(=O)O)ccc34)c2)cc1 [Compound 42, 5-[(3-{3-[N-(4-methylphenyl)carbamoyl]propanoylamino}-5-[N-(6-sulfonaphthyl)carbamoyl]phenyl)carbonylamino]naphthalene-2-sulfonic acid] | 116.7 % Control
O=C(Nc1cccc2cc(S(=O)(=O)O)ccc12)c1cc(NS(=O)(=O)c2ccc3ccccc3c2)cc(C(=O)Nc2cccc3cc(S(=O)(=O)O)ccc23)c1 [Compound 49, 5-({3-[(2-naphthylsulfonyl)amino]-5-[N-(6-sulfonaphthyl)carbamoyl]phenyl}carbonylamino)naphthalene-2-sulfonic acid] | 109.3 % Control
COc1ccccc1NC(=O)Nc1cc(C(=O)Nc2cccc3cc(S(=O)(=O)O)ccc23)cc(C(=O)Nc2cccc3cc(S(=O)(=O)O)ccc23)c1 [Compound 63, 5-[(3-{[(2-methoxyphenyl)amino]carbonylamino}-5-[N-(6-sulfonaphthyl)carbamoyl]phenyl)carbonylamino]naphthalene-2-sulfonic acid] | 94.4 % Control
Cc1ccc(S(=O)(=O)Nc2cc(C(=O)Nc3cccc4cc(S(=O)(=O)O)ccc34)cc(C(=O)Nc3cccc4cc(S(=O)(=O)O)ccc34)c2)cc1 [Compound 53, 5-[(3-{[(4-methylphenyl)sulfonyl]amino}-5-[N-(6-sulfonaphthyl)carbamoyl]phenyl)carbonylamino]naphthalene-2-sulfonic acid] | 105.7 % Control
Cc1cc(C)c(S(=O)(=O)Nc2cc(C(=O)Nc3cccc4cc(S(=O)(=O)O)ccc34)cc(C(=O)Nc3cccc4cc(S(=O)(=O)O)ccc34)c2)c(C)c1 [Compound 55, 5-[(3-{[(2,4,6-trimethylphenyl)sulfonyl]amino}-5-[N-(6-sulfonaphthyl)carbamoyl]phenyl)carbonylamino]naphthalene-2-sulfonic acid] | 121.6 % Control
O=C(Nc1cccc2cc(S(=O)(=O)O)ccc12)c1cc(NS(=O)(=O)Cc2ccccc2)cc(C(=O)Nc2cccc3cc(S(=O)(=O)O)ccc23)c1 [Compound 56, 5-[(5-{[benzylsulfonyl]amino}-3-[N-(6-sulfonaphthyl)carbamoyl]phenyl)carbonylamino]naphthalene-2-sulfonic acid] | 102.4 % Control
O=C(Nc1cc(C(=O)Nc2cccc3cc(S(=O)(=O)O)ccc23)cc(C(=O)Nc2cccc3cc(S(=O)(=O)O)ccc23)c1)c1ccc2ccccc2c1 [Compound 24, 5-({3-(2-naphthylcarbonylamino)-5-[N-(6-sulfonaphthyl)carbamoyl]phenyl}carbonylamino)naphthalene-2-sulfonic acid] | 89.6 % Control

More lines, now with the values ahead:

Activity (% Control) | Structure (SMILES)
91.4 % Control | N[C@@H](CC(=O)O)C(=O)Nc1cc(C(=O)Nc2cccc3cc(S(=O)(=O)O)ccc23)cc(C(=O)Nc2cccc3cc(S(=O)(=O)O)ccc23)c1 [Compound 26, (3S)-3-amino-3-(N-{3,5-bis[N-(6-sulfonaphthyl)carbamoyl]phenyl}carbamoyl)propanoic acid]
124.8 % Control | O=C(Cc1cccc(Cl)c1)Nc1cc(C(=O)Nc2cccc3cc(S(=O)(=O)O)ccc23)cc(C(=O)Nc2cccc3cc(S(=O)(=O)O)ccc23)c1 [Compound 44, 5-({3-[2-(3-chlorophenyl)acetylamino]-5-[N-(6-sulfonaphthyl)carbamoyl]phenyl}carbonylamino)naphthalene-2-sulfonic acid]
109.9 % Control | O=C(O)CCC(=O)Nc1cc(C(=O)Nc2cccc3cc(S(=O)(=O)O)ccc23)cc(C(=O)Nc2cccc3cc(S(=O)(=O)O)ccc23)c1 [Compound 32, 3-(N-{3,5-bis[N-(6-sulfonaphthyl)carbamoyl]phenyl}carbamoyl)propanoic acid]
114.6 % Control | Cc1cccc(NC(=O)Nc2cc(C(=O)Nc3cccc4cc(S(=O)(=O)O)ccc34)cc(C(=O)Nc3cccc4cc(S(=O)(=O)O)ccc34)c2)c1 [Compound 61, 5-[(3-{[(3-methylphenyl)amino]carbonylamino}-5-[N-(6-sulfonaphthyl)carbamoyl]phenyl)carbonylamino]naphthalene-2-sulfonic acid]
159.2 % Control | O=C(O)c1ccc(C(=O)Nc2cc(C(=O)Nc3cccc4cc(S(=O)(=O)O)ccc34)cc(C(=O)Nc3cccc4cc(S(=O)(=O)O)ccc34)c2)cc1 [Compound 31, 4-(N-{3,5-bis[N-(6-sulfonaphthyl)carbamoyl]phenyl}carbamoyl)benzoic acid]
120.4 % Control | O=C(Nc1cc(C(=O)Nc2cccc3cc(S(=O)(=O)O)ccc23)cc(C(=O)Nc2cccc3cc(S(=O)(=O)O)ccc23)c1)Nc1ccccc1Cl [Compound 59, 5-[(3-{[(2-chlorophenyl)amino]carbonylamino}-5-[N-(6-sulfonaphthyl)carbamoyl]phenyl)carbonylamino]naphthalene-2-sulfonic acid]
123.2 % Control | O=C(Nc1cc(C(=O)Nc2cccc3cc(S(=O)(=O)O)ccc23)cc(C(=O)Nc2cccc3cc(S(=O)(=O)O)ccc23)c1)c1cccnc1 [Compound 36, 5-({3-(3-pyridylcarbonylamino)-5-[N-(6-sulfonaphthyl)carbamoyl]phenyl}carbonylamino)naphthalene-2-sulfonic acid]
119.5 % Control | O=C(Nc1cccc2cc(S(=O)(=O)O)ccc12)c1cc(NC(=O)c2ccco2)cc(C(=O)Nc2cccc3cc(S(=O)(=O)O)ccc23)c1 [Compound 34, 5-({3-(2-furylcarbonylamino)-5-[N-(6-sulfonaphthyl)carbamoyl]phenyl}carbonylamino)naphthalene-2-sulfonic acid]
124.2 % Control | Cc1ccc(CC(=O)Nc2cc(C(=O)Nc3cccc4cc(S(=O)(=O)O)ccc34)cc(C(=O)Nc3cccc4cc(S(=O)(=O)O)ccc34)c2)cc1 [Compound 43, 5-({3-[2-(4-methylphenyl)acetylamino]-5-[N-(6-sulfonaphthyl)carbamoyl]phenyl}carbonylamino)naphthalene-2-sulfonic acid]
122.5 % Control | O=C(Nc1cccc2cc(S(=O)(=O)O)ccc12)c1cc(NC(=O)C2CCCCC2)cc(C(=O)Nc2cccc3cc(S(=O)(=O)O)ccc23)c1 [Compound 33, 5-({3-(cyclohexylcarbonylamino)-5-[N-(6-sulfonaphthyl)carbamoyl]phenyl}carbonylamino)naphthalene-2-sulfonic acid]
84.1 % Control | O=C(O)c1cccc(C(=O)Nc2cc(C(=O)Nc3cccc4cc(S(=O)(=O)O)ccc34)cc(C(=O)Nc3cccc4cc(S(=O)(=O)O)ccc34)c2)c1 [Compound 30, 3-(N-{3,5-bis[N-(6-sulfonaphthyl)carbamoyl]phenyl}carbamoyl)benzoic acid]
115.5 % Control | O=C(Nc1ccccc1)Nc1cc(C(=O)Nc2cccc3cc(S(=O)(=O)O)ccc23)cc(C(=O)Nc2cccc3cc(S(=O)(=O)O)ccc23)c1 [Compound 66, 5-({3-[(phenylamino)carbonylamino]-5-[N-(6-sulfonaphthyl)carbamoyl]phenyl}carbonylamino)naphthalene-2-sulfonic acid]
